Assay results taken from patent US20080058271A1, “Prevention of primary sjogren' s Syndrome by ICA69 deficiency” (priority 2002, published 2008).
Ends that are not written are not given here.

How the values were obtained:
NOD lymph node cells = experiment: T cell proliferative responses in draining lymph node cells; assay type: cell-based, mouse; settings: 10 week old NOD females, pooled lymph node cells
Description: FIG. 2. T cell proliferative responses to ICA69, its dominant epitope, Tep69, BSA, and its dominant NOD mouse epitope, ABBOS, were measured in lymph nodes draining the pancreas (A), and submandibular glands (B), or lymph nodes draining the lower (C) or upper (D) extremities. Gray columns: control cultures stimulated with ovalbumin (OVA) or Medium (MED) only. To obtain sufficient cell numbers, lymph node cells were pooled from seven mice. One of three similar data sets is shown.
(§1) NOD lymph-node, spleen and human peripheral blood T cell responses were measured with three slightly different protocols. Draining lymph node cells from 10 week old NOD females were pooled. 2×10^5 lymph node cells along with 2×10^5 irradiated (1100 rad) syngeneic spleen cells were cultured in serum-free AIM-V media (Life Technologies, Mississauga, Ontario, Canada) in the presence of protein or peptide antigen. Proteins (ICA69, BSA or OVA) were used at concentrations of […], peptides (Tep69, ABBOS) at […]. After 72 hr of incubation, cultures were pulsed overnight with […] of [^3H]thymidine, harvested and subjected to liquid scintillation counting. Experiments were repeated three times with similar results, each with lymph nodes pooled from groups of 4-7 mice. Proliferation assays with spleen cells used 4×10^5 responding cells/well and no irradiated splenocytes. For the detection of human T cell responses, Ficoll-Hypaque purified peripheral blood mononuclear cells (PBMC) were cultured at 10^5 cells/well for one week in serum-free Hybrimax 2897 medium (Sigma) supplemented with human IL-2 (10 U/well) and 0.01-10 mg of antigen^15. This assay performed well in a large, blinded study and in the first international T cell workshop of the Immunology of Diabetes Society^22.
This phenotype could reflect a role for ICA69 as an autoantigen or a role for ICA69 protein-function. To begin an analysis of these two alternatives, we measured T cell autoreactivity to ICA69 and its immunodominant T cell epitope, Tep69, in 10 week old NOD females. Proliferative in vitro recall responses were assessed in draining lymph nodes from various tissues, in order to localize where T cell tolerance to ICA69 was lost. […] Spleen cell responses to ICA69, Tep69, BSA and ABBOS were present as previously described by us^21 and others^24 (data not shown, but for example see FIG. 3F).

[1] = test system: peripheral blood mononuclear cells (PBMC); experiment: Human T cell proliferative responses in PBMC; assay type: cell-based; settings: for T cell responses in patients with SLE and in healthy controls / patients with primary SS with positive T cell responses: PBMC; for T cell responses in patients with SLE and in healthy controls: SLE n=6, healthy controls n=12; for patients with primary SS with positive T cell responses: n=9, P 0.008 vs. SLE, P 0.004 vs. healthy controls; for T cell responses to control antigens (stimulation index): PBMC of primary SS, SLE patients and healthy controls
Description: FIG. 7.(A) T cell responses to ICA69, BSA, Tep69, and ABBOS were analyzed in patients with primary SS (n=9) SLE patients (n=6) or healthy controls (n=12). Positive responses to tetanus toxoid (TT) contrasted with negative responses to OVA, actin or the type 1 diabetes-associated GAD65 peptide, p555. Data are expressed as stimulation index (SI, experimental/background cpm, as described herein). Background counts were similar in all cohorts (mean±SD: 1154±354 cpm). FIG. 8. Autoantibodies to ICA69 (1 μg protein/lane) were detected in Western blots of sera (1 to 1000 dilution) from patients with pSS (lanes 1-5) but not in controls (lanes 6-8).
Blood samples were obtained from patients (n=15) with primary SS or SLE at the Arthritis Center at Toronto Western Hospital and from healthy, adult volunteers through ethics-board approved consent (n=12). pSS patients were female, had documented xerostomia and xerophthalmia and met San Diego disease criteria. All were anti-Ro antibody positive, 6 had anti-fodrin autoantibodies and all had minor salivary gland biopsy focus scores of >5. Healthy controls (n=12) of similar age and gender profile were recruited from staff. Fresh blood was used for T cell studies. In immunoblotting experiments, sera from patients and controls were diluted at 1:1000 and blotted on nitrocellulose containing […] of recombinant ICA69 protein to detect the presence of anti-ICA69 antibodies.
as §1
Proliferative T cell responses were expressed as stimulation index (SI, experimental/control cpm). SI's greater than the mean SI in OVA-stimulated cultures plus 3 SD were deemed positive^15. Numeric data were compared by Mann-Whitney tests, Fisher's exact test was used to analyze tables. All P values were two-tailed and significance was set at 5%. Figures present mean values plus lSD.
To determine if ICA69 was an autoimmune target in patients with primary SS, we first measured T cell responses to ICA69 and Tep69 in PBMC from patients with primary SS (n=9), systemic lupus erythematosus (SLE, n=6) and age-matched healthy controls (n=12) (FIG. 7A).

MHC class II = settings: reference 21; cited from earlier work
[2] = test system: NOD mouse sialoadenitis (submandibular gland mononuclear foci); settings: single i.p. 200 mg ABBOS in IFA, 10 wk old NOD females
[3] = test system: NOD mouse pSS (salivary disease); settings: instantly disclosed protocol

Molecule	T cell proliferative responses in pancreatic and submandibular lymph node cells (NOD lymph node cells)	T cell proliferative responses in popliteal or axillary lymph nodes (NOD lymph node cells)	T cell responses in patients with SLE and in healthy controls [1]	patients with primary SS with positive T cell responses [1]	T cell responses to control antigens (stimulation index) [1]	other results
AFIKATGKKEDE [Tep69]	detected	not in popliteal or axillary lymph nodes	absent	8 of 9		MHC class II affinity (MHC class II): very low
FKADEKKFWGKYLYE [ABBOS, FKADEKKFWGKYLYE]						mice with moderate disease exacerbation [2]: 12%; mice with moderate disease exacerbation (of mice analyzed) [2]: 2/17; disease acceleration with the optimized treatment protocol [3]: no acceleration
OVA: Ovalbumin (Sigma), control antigen					negative	
TT: tetanus toxoid, positive control antigen					Positive	
actin					negative	
ICA69: Human recombinant islet cell autoantigen 69 kDa (protein) MSGHKCSYPWDLQDRYAQDKSVVNKMQQKYWETKQAFIKATGKKEDEHVVASDADLDAKLELFHSIQRTCLDLSKAIVLYQKRICFLSQEENELGKFLRSQGFQDKTRAGKMMQATGKALCFSSQQRLALRNPLCRFHQEVETFRHRAISDTWLTVNRMEQCRTEYRGALLWMKDVSQELDPDLYKQMEKFRKVQTQVRLAKKNFDKLKMDVCQKVDLLGASRCNLLSHMLATYQTTLLHFWEKTSHTMAAIHESFKGYQPYEFTTLKSLQDPMKKLVEKEEKKKINQQESTDAAVQEPSQLISLEEENQRKESSSFKTEDGKSILSALDKGSTHTACSGPIDELLDMKSEEGACLGPVAGTPEPEGADKDDLLLLSEIFNASSLEEGEFSKEWAAVFGDGQVKEPVPTMALGEPDPKAQTGSGFLPSQLLDQNMKDLQASLQEPAKAASDLTAWFSLFADLDPLSNPDAVGKTDKEHELLNA	detected	not in popliteal or axillary lymph nodes	absent	8 of 9		
